The text below walks through data of the supplement of paper PMC10307832.

Holding throughout (assay): relative viability (nuclei count vs DMSO), 5 days (fraction); higher = more cells survive
Compound in test [1]: C1=CC2=C(C=CC(=C2)C=C3C(=O)NC(=NCC4=CC=CS4)S3)N=C1 [RO-3306] + CS(=O)(=O)N1CCN(Cc2cc3nc(-c4cccc5[nH]ncc45)nc(N4CCOCC4)c3s2)CC1 [Pictilisib] (partner 1 µM)
An outline of the steps:
(§1)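 Relative viability divides the nuclei count in treated wells by that in vehicle wells. Lung cancer cell lines were seeded in 1536-well plates, dosed by pin tool the next day, and fixed and stained after 5 days in one step with final 0.05% Triton X-100, 1% formaldehyde and 1 ug/ml Hoechst. Dosing was a single drug or a fixed anchor-drug dose plus five library-drug doses (not always all listed) in √10 steps, and values are medians of duplicate plates imaged at 4×.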

Compound in test [2]: O=S(=O)(c1ccccc1)N(CC(F)(F)F)c1ccc(C(O)(C(F)(F)F)C(F)(F)F)cc1 + C[C@]1(O)C[C@@H](c2nc(-c3ccc4ccc(-c5ccccc5)nc4c3)c3c(N)nccn32)C1 [Linsitinib] (partner 1 µM)
The procedure, abridged:
as §1

Compound in test [3]: O=S(=O)(c1ccccc1)N(CC(F)(F)F)c1ccc(C(O)(C(F)(F)F)C(F)(F)F)cc1 + Nc1nc2[nH]cc(CCc3ccc(C(=O)N[C@@H](CCC(=O)O)C(=O)O)cc3)c2c(=O)[nH]1 [Pemetrexed] (partner 0.2 µM)
An outline of the steps: as §1

Compound in test [4]: C1=CC2=C(C=CC(=C2)C=C3C(=O)NC(=NCC4=CC=CS4)S3)N=C1 [RO-3306] + O=C(c1cc(Cc2n[nH]c(=O)c3ccccc23)ccc1F)N1CCN(C(=O)C2CC2)CC1 [Olaparib] (partner 8 µM)
An outline of the steps:
as §1

Turning to UMC-11, the relative viability amounted to 1.16 in test [1] (first compound 0.01 µM); 0.729 in test [1] (first compound 0.03162 µM); 0.811 in test [1] (first compound 0.1 µM); 0.859 in test [1] (first compound 0.3162 µM); 0.617 in test [1] (first compound 1 µM); 1.13 in test [2] (first compound 0.8 µM). For the same cell line, the relative viability in test [2] (first compound 2.53 µM) is 1.08; in test [2] (first compound 8 µM) it was 1.13; in test [3] (first compound 0.8 µM), 0.786; in test [3] (first compound 2.53 µM), 0.736; in test [3] (first compound 8 µM), 0.852; in test [4] (first compound 0.01 µM) it was 0.365. The relative viability came out at 0.411 in test [4] (first compound 0.03162 µM), 0.351 in test [4] (first compound 0.1 µM), 0.385 in test [4] (first compound 0.3162 µM) and 0.299 in test [4] (first compound 1 µM).
